According to article PMC9671962 (Communications Biology, 2022):
Values joined by “and” are separate entries in the source; they are usually repeats but may differ in a detail not shown here. Equal values may be shown once.

Legend:
COG-N-415x = assay: Pre-clinical efficacy study, COG-N-415x PDX; type: in vivo; details: single mouse
Procedure: (§1) Patient demographics and genetic characteristics are listed in (Supplementary Tables 1, 2)[17]. The maximum tolerated dose (MTD) was determined to be 36 MBq/kg administered by intra-peritoneal injection twice weekly for a total of 4 dose fractions and this fractionated regimen was used in all studies (Supplementary Fig. 1)[18],[19]. […] Nine of 11 PDX models were MYCN amplified (Fig. 1b), which is a hallmark of high-risk neuroblastoma. Tumor response was measured as the maximum percent decrease in tumor volume after treatment and event-free survival (EFS) was measured by the area over the curve method with tumor events pre-defined by tumor growth exceeding 2 cm[3],[18].
(§2) The use of 2 mice per arm was based on the previously reported statistical analysis. PDX tumors were implanted into the right flank of 5 to 6-weeks old female mice weighing about 20–25 grams. […] Two additional dose levels of 12, and 24 MBq/kg/fraction were assessed in a subset of models and were administered as stated above. In two models treated at the 24 MBq/kg/fraction dose level we re-challenged tumor response at the time of tumor progression with an additional 4 dose fractions at 24 MBq/kg/fraction given twice weekly. Doses were prepared in 500 µL total volume. An equal volume of saline was used for the vehicle group. Tumors were measured using a digital caliper at the initiation of the study and two times per week during the treatment period. Tumor volumes were calculated as volume = ([…]∗0.5236)/1000. Weights were obtained twice weekly and mice were monitored daily for signs of toxicity. […] Tumor response was assessed by best response defined as greatest reduction in tumor volume following the last dose and is presented as percent change in tumor volume. Event-free survival was determined by area over the curve method that calculates the time to tumor event, which was defined as tumors reaching or exceeding a size ≥ 2 cm^3.
(§3) Animal studies were performed in female mice due to the lack of sex-related differences for [^211At]PTT tolerability from initial dose response studies performed in female and male mice. Female mice were chosen due to their underlying behavior towards other study subjects that reduced nonstudy-related causes for decreased wellness. Pre-clinical efficacy studies were performed through “single mouse testing” to more closely recapitulate a clinical trial. […] Number size for treatment groups was determined by model tumor growth reproducibility, which was previously shown to have less than 5% normal variation with at least two animals. Statistical tests for tumor response and event-free survival (EFS) were performed as a grouped analysis that included all tumor models treated at each respective dose level (n = 2 per model per dose level). Statistical differences between treatment groups for tumor response was performed by paired-model T-test that compared reduction in tumor volume for the 36 MBq/kg dose level vs. 24 MBq/kg or 12 MBq/kg. Event free survival was measured by area over the curve method to quantify time to event, which was set as tumor growth exceeding 2 cm[3],[19]. Differences in EFS were tested across all treated models for each respective dose level, and against untreated controls, by paired-model ANOVA analysis. Associations of drug target expression and response were performed by linear regression analysis of EFS and PARP1 mRNA expression. Genetic signatures were visually presented as a function of EFS and no statistical tests were applied. Blood and marrow toxicity studies were performed with n = 5 sample sizes and powered to detect >20% differences between untreated controls and treated animals. Results were tested for significance by one-way ANOVA comparison from untreated controls. Marrow colony formation assays were performed in replicates of 2 for each mouse subject, dependent on marrow isolation, and all replicates are included in final analyses. […]

NB-1691x = assay: Pre-clinical efficacy study, NB-1691x PDX; type: in vivo; details: 36 MBq/kg/fraction x 4 fractions, single mouse
Procedure: as §1
The use of 2 mice per arm was based on the previously reported statistical analysis. […] Two additional dose levels of 12, and 24 MBq/kg/fraction were assessed in a subset of models and were administered as stated above. […] Tumors were measured using a digital caliper at the initiation of the study and two times per week during the treatment period. Tumor volumes were calculated as volume = ((diameter^1/2 + diameter^2/2)^3∗0.5236)/1000. Weights were obtained twice weekly and mice were monitored daily for signs of toxicity. […] Tumor response was assessed by best response defined as greatest reduction in tumor volume following the last dose and is presented as percent change in tumor volume. […]

[1] = Mouse weight over time / tolerability in PDX efficacy study (Fig. 1f); type: in vivo
Procedure: as §2

[2] = design: method as in PMID 31072830; details: cited from earlier work
COG-N-519x = assay: Pre-clinical efficacy study, COG-N-519x PDX; type: in vivo; details: single mouse
Procedure: as §1, §2, §3

[3] = 12 MBq/kg/fraction x 4 fractions
[4] = 24 MBq/kg/fraction x 4 fractions
[5] = 36 MBq/kg/fraction x 4 fractions

Question: What does the source list for `O=C1NCCn2c(-c3ccc([211At])cc3)nc3cccc1c32` [[^211At]PTT, Astatine-211-parthanatine]?
Answer: EFS by AOC method (COG-N-415x; [3]): 14.1951 days and 16.6777 days; Tumor response (% growth from study initiation at ~ 200 mm3) (COG-N-415x; [3]): 74.1936% and -21.7391%; EFS by AOC method (COG-N-415x; [4]): 27.6 days and 26.9 days and 27.5972 days and 26.9655 days; Tumor response (% growth from study initiation at ~ 200 mm3) (COG-N-415x; [4]): -80.7692% and -84.6154%; EFS by AOC method (COG-N-415x; [5]): 38.3761 days and 73.0746 days; Tumor response (% growth from study initiation at ~ 200 mm3) (COG-N-415x; [5]): -100% and -94.4444%; EFS by AOC method (NB-1691x): 50.9799 days and 78.469 days; Tumor response (% growth from study initiation at ~ 200 mm3) (NB-1691x): -100%; Percent Body Weight from study initiation ([1]; COG415-325, 12 MBq/kg/fraction x 4, 0.4 Weeks): 100.48% and 95.77%; Percent Body Weight from study initiation ([1]; COG415-325, 12 MBq/kg/fraction x 4, 1 Weeks): 100.97% and 94.84%; Percent Body Weight from study initiation ([1]; COG415-325, 12 MBq/kg/fraction x 4, 1.4 Weeks): 100% and 92.96%; Percent Body Weight from study initiation ([1]; COG415-325, 12 MBq/kg/fraction x 4, 2 Weeks): 97.58% and 92.96%; Percent Body Weight from study initiation ([1]; COG415-325, 12 MBq/kg/fraction x 4, 2.4 Weeks): 103.86% and 98.12%; Percent Body Weight from study initiation ([1]; COG415-325, 12 MBq/kg/fraction x 4, 3 Weeks): 102.42% and 99.53%; Percent Body Weight from study initiation ([1]; COG415-325, 12 MBq/kg/fraction x 4, 3.4 Weeks): 108.7% and 102.35%; Percent Body Weight from study initiation ([1]; COG415-325, 12 MBq/kg/fraction x 4, 4 Weeks): 111.11% and 110.33%; Percent Body Weight from study initiation ([1]; COG415-650, 24 MBq/kg/fraction x 4, 0.4 Weeks): 102.79% and 99.52%; Percent Body Weight from study initiation ([1]; COG415-650, 24 MBq/kg/fraction x 4, 1 Weeks): 96.74% and 92.82%; Percent Body Weight from study initiation ([1]; COG415-650, 24 MBq/kg/fraction x 4, 1.4 Weeks): 92.56% and 90.43%; Percent Body Weight from study initiation ([1]; COG415-650, 24 MBq/kg/fraction x 4, 2 Weeks): 90.23% and 87.56%; Percent Body Weight from study initiation ([1]; COG415-650, 24 MBq/kg/fraction x 4, 2.4 Weeks): 93.49% and 92.34%; Percent Body Weight from study initiation ([1]; COG415-650, 24 MBq/kg/fraction x 4, 3 Weeks): 100.93% and 99.04%; Percent Body Weight from study initiation ([1]; COG415-650, 24 MBq/kg/fraction x 4, 3.4 Weeks): 100% and 96.65%; Percent Body Weight from study initiation ([1]; COG415-650, 24 MBq/kg/fraction x 4, 4 Weeks): 102.33% and 99.04%; Percent Body Weight from study initiation ([1]; COG415-650, 24 MBq/kg/fraction x 4, 4.4 Weeks): 106.05% and 102.39%; Percent Body Weight from study initiation ([1]; COG415-650, 24 MBq/kg/fraction x 4, 5 Weeks): 107.44% and 96.65%; Percent Body Weight from study initiation ([1]; COG415-650, 24 MBq/kg/fraction x 4, 5.4 Weeks): 111.63% and 101.91%; Percent Body Weight from study initiation ([1]; COG415-650, 24 MBq/kg/fraction x 4, 6 Weeks): 104.31%; Percent Body Weight from study initiation ([1]; COG415-975, 36 MBq/kg/fraction x 4, 0 Weeks): 100%; Percent Body Weight from study initiation ([1]; COG415-975, 36 MBq/kg/fraction x 4, 0.4 Weeks): 94.07% and 98.23%; Percent Body Weight from study initiation ([1]; COG415-975, 36 MBq/kg/fraction x 4, 1 Weeks): 84.75% and 90.71%; Percent Body Weight from study initiation ([1]; COG415-975, 36 MBq/kg/fraction x 4, 1.4 Weeks): 80.51% and 90.27%; Percent Body Weight from study initiation ([1]; COG415-975, 36 MBq/kg/fraction x 4, 2 Weeks): 72.88% and 79.65%; Percent Body Weight from study initiation ([1]; COG415-975, 36 MBq/kg/fraction x 4, 2.4 Weeks): 77.97% and 83.63%; Percent Body Weight from study initiation ([1]; COG415-975, 36 MBq/kg/fraction x 4, 3 Weeks): 80.08% and 81.86%; Percent Body Weight from study initiation ([1]; COG415-975, 36 MBq/kg/fraction x 4, 3.4 Weeks): 75.42% and 81.42%; Percent Body Weight from study initiation ([1]; COG415-975, 36 MBq/kg/fraction x 4, 4 Weeks): 80.93% and 80.09%; Percent Body Weight from study initiation ([1]; COG415-975, 36 MBq/kg/fraction x 4, 4.4 Weeks): 82.2% and 82.3%; Percent Body Weight from study initiation ([1]; COG415-975, 36 MBq/kg/fraction x 4, 5 Weeks): 88.56% and 88.05%; Percent Body Weight from study initiation ([1]; COG415-975, 36 MBq/kg/fraction x 4, 5.4 Weeks): 88.98% and 91.59%; Percent Body Weight from study initiation ([1]; COG415-975, 36 MBq/kg/fraction x 4, 6.1 Weeks): 96.19% and 92.48%; Percent Body Weight from study initiation ([1]; COG415-975, 36 MBq/kg/fraction x 4, 6.4 Weeks): 94.07% and 90.71%; Percent Body Weight from study initiation ([1]; COG415-975, 36 MBq/kg/fraction x 4, 7 Weeks): 99.58% and 93.36%; Percent Body Weight from study initiation ([1]; COG415-975, 36 MBq/kg/fraction x 4, 7.4 Weeks): 101.27% and 93.36%; Percent Body Weight from study initiation ([1]; COG415-975, 36 MBq/kg/fraction x 4, 8 Weeks): 95.48%; Percent Body Weight from study initiation ([1]; COG415-975, 36 MBq/kg/fraction x 4, 8.9 Weeks): 100.44%; Percent Body Weight from study initiation ([1]; COG415-975, 36 MBq/kg/fraction x 4, 9.4 Weeks): 100.88%; Percent Body Weight from study initiation ([1]; COG415-975, 36 MBq/kg/fraction x 4, 10 Weeks): 101.77%; Percent Body Weight from study initiation ([1]; COG415-975, 36 MBq/kg/fraction x 4, 10.4 Weeks): 103.98%; Percent Body Weight from study initiation ([1]; COG415-975, 36 MBq/kg/fraction x 4, 11 Weeks): 107.08%; Percent Body Weight from study initiation ([1]; COG415-975, 36 MBq/kg/fraction x 4, 12 Weeks): 105.31%; Percent Body Weight from study initiation ([1]; COG519-325, 12 MBq/kg/fraction x 4, 0 Weeks): 100%; Percent Body Weight from study initiation ([1]; COG519-325, 12 MBq/kg/fraction x 4, 0.4 Weeks): 100% and 97.98%; Percent Body Weight from study initiation ([1]; COG519-325, 12 MBq/kg/fraction x 4, 1 Weeks): 93.83% and 96.97%; Percent Body Weight from study initiation ([1]; COG519-650, 24 MBq/kg/fraction x 4, 0 Weeks): 100%; Percent Body Weight from study initiation ([1]; COG519-650, 24 MBq/kg/fraction x 4, 0.4 Weeks): 97.69% and 96.86%; Percent Body Weight from study initiation ([1]; COG519-650, 24 MBq/kg/fraction x 4, 1 Weeks): 95.37% and 97.38%; mice censored from EFS analysis due to weight loss >20% ([1]; MTD, two out of 22 mice, >50 days from treatment): 9%; Percent Body Weight from study initiation ([1]; NBSD-650, 24 MBq/kg/fraction x 4, 2.6 Weeks): 90.4306% and 91.4027%; Percent Body Weight from study initiation ([1]; NBSD-650, 24 MBq/kg/fraction x 4, 3 Weeks): 94.7368% and 92.3077%; Percent Body Weight from study initiation ([1]; NBSD-650, 24 MBq/kg/fraction x 4, 3.6 Weeks): 95.2153% and 92.7602%; Percent Body Weight from study initiation ([1]; NBSD-650, 24 MBq/kg/fraction x 4, 4 Weeks): 98.0861%; Percent Body Weight from study initiation ([1]; NBSD-975, 36 MBq/kg/fraction x 4, 2.6 Weeks): 84.141% and 86.3636%; Percent Body Weight from study initiation ([1]; NBSD-975, 36 MBq/kg/fraction x 4, 3 Weeks): 81.9383% and 87.8788%; Percent Body Weight from study initiation ([1]; NBSD-975, 36 MBq/kg/fraction x 4, 3.6 Weeks): 81.4978% and 88.3838%; dose-limiting toxicity observed (number) ([1]; NE-EBC1x tumor-bearing mouse re-challenged with 24 MBq/kg fractionated regimen): One; treated mice that maintained a healthy weight throughout the study (≥100 ± 20% body weight) ([1]; all dose levels): 43 of 46; outcome of single dose ([2]; 1,480 kBq administered as a single dose): lethal; outcome of fractionated dose ([2]; 1,480 kBq separated into 4 dose fractions given twice weekly): tolerated; EFS by AOC method (COG-N-519x; [3]): 22.7688 days and 33.292 days; Tumor response (% growth from study initiation at ~ 200 mm3) (COG-N-519x; [3]): -46.1538% and -36.8421%; EFS by AOC method (COG-N-519x; [4]): 28.2857 days and 42.6471 days; Tumor response (% growth from study initiation at ~ 200 mm3) (COG-N-519x; [4]): -83.871% and -100%; EFS by AOC method (COG-N-519x; [5]): 82.4 Days and 100. 5 Days and 82.4108 Days and 100.511 Days; Tumor response (% growth from study initiation at ~ 200 mm3) (COG-N-519x; [5]): -100%
